The results in this text go back to US12281149B2, “Modulators of G-protein coupled receptors” (priority 2021, dated 2025).

*1 amine or outer side, *2 acyl side, *3 side chain or, on linkers, in order; H or OH if unused. Where a SMILES comes first, the peptide text is derived from it. Side-chain parts run from the residue outwards. [ ]: non-standard residue; d: D form. The star is where a group is joined. Isobutyryl(2-(3-CN-5-F-Ph)) = CC(C)(C(=O)*)c1cc(F)cc(C#N)c1; C20 diacid = O=C(O)CCCCCCCCCCCCCCCCCCC(=O)*; X74 = CC(C)(C(=O)*)c1cc(F)cc(C(F)(F)F)c1; γGlu = O=C(O)[C@H](CCC(=O)[*:2])N[*:1]; X71 = COc1cc(F)cc(C(C)(C)C(=O)*)c1; X27 = O=C1CC(C(=O)*)(c2ccccc2)CN1; X38 = CC(C)(C(=O)*)c1cc(O)cc(F)c1; AEEA = NCCOCCOCC(=O)O; Aib = CC(C)(N)C(=O)O; GABA = NCCCC(=O)O; βAla = NCCC(=O)O

Assay type in all cases: cell-based
Assay [1] deals with T1, GLP-1 receptor (Homo sapiens, UniProt P43220). As to the kind of experiment: HitHunter cAMP assay, GLP-1 receptor. To be noted: for EC50: CHO cells stably expressing human GLP-1 receptor, cAMP accumulation, 30 min, read-out: EC50 GLP-1R; for Emax: CHO cells, cAMP, normalized to maximum signal from GLP-1 (high) and DMSO (low), read-out: Emax GLP-1R.
T1 sequence (P43220 24-463): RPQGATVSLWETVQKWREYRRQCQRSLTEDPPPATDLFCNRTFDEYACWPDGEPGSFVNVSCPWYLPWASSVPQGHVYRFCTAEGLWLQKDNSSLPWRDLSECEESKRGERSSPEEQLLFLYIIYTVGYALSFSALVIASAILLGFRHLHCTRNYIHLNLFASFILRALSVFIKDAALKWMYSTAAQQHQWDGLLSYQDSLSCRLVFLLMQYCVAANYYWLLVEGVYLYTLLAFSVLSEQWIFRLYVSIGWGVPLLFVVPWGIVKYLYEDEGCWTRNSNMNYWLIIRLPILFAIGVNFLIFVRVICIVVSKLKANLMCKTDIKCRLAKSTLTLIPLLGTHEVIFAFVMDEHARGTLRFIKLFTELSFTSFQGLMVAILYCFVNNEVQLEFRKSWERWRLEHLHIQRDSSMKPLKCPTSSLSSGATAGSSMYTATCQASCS
Protocol: CAMP accumulation was measured in Chinese hamster ovary (CHO) cells stably expressing the human GLP-1 receptor or GIP receptor using the HitHunter CAMP Assay for Small Molecules Kit (Eurofins). Briefly, cells were grown in Ham's F12 Nutrient Mix with 10% FBS and lifted with Cell dissociation buffer, Enzyme free, PBS based (ThermoFisher). Cells were pelleted and resuspended in Hank's buffered saline solution with 10 mM Hepes and 625 μM 3-isobutyl-1-methylxanthine. The antibody reagent was then added to cells at a 1:2 ratio and 5 μL of mixture was seeded in 384-well small volume white assay plates, at 10,000 cells/well. Cells were then treated with 50 nl compound in DMSO using an ECHO 550 acoustic dispenser (Labcyte) in a 20-point dose response format in triplicate for 30 min. Cells were the lysed and detection reagents added according to the manufacturer's protocol. After overnight incubation, luminescence was measured using a Perkin Elmer Envision plate reader. Raw data was normalized to the maximum signal from GLP-1 or GIP (high) and DMSO (low). Dose response curves were analyzed using GraphPad Prism 9.0.
For assay [2], the target named is T2, GIP receptor (Homo sapiens, UniProt P48546).
T2 sequence (P48546 22-466): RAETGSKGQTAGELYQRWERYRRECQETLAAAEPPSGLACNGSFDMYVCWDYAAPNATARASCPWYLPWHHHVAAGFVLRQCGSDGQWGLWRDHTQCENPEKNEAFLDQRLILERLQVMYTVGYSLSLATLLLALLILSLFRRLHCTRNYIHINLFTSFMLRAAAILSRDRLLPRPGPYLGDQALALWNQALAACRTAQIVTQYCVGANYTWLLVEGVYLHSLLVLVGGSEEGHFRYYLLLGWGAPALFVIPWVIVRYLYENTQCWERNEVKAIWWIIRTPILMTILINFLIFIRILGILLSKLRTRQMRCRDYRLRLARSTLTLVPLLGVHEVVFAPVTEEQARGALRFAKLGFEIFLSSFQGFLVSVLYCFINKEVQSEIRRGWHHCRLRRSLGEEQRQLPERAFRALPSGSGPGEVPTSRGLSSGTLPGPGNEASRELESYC
As to the kind of experiment: HitHunter cAMP assay, GIP receptor. The settings on record: for EC50: CHO cells stably expressing GIP receptor, cAMP accumulation, 30 min, read-out: EC50 GIP-1R; for Emax: CHO cells, cAMP, normalized to maximum signal from GIP (high) and DMSO (low), read-out: Emax GIP-1R. Background: Changes in cAMP serve as a functional read-out for many G protein-coupled receptors.

The target in assay [3] is T2, GIP receptor. The assay can be described thus: PathHunter β-arrestin assay, GIP receptor. Details: host or cells: PathHunter CHO-K1 GIPR β-Arrestin Cell Line. To be noted: β-arrestin-2 recruitment, PathHunter CHO-K1 GIPR β-Arrestin Cell Line, 90 min at 37° C.; normalized to GIP; read-out: GIPR β Arrestin EC50. Background: Arrestin recruitment assays detect the binding of arrestin to an activated receptor.

The target of assay [4] is T1, GLP-1 receptor. The assay can be described thus: PathHunter β-arrestin assay, GLP-1 receptor. Details: host or cells: PathHunter CHO-K1 GLP1R β-Arrestin Cell Line. To be noted: β-arrestin-2 recruitment, PathHunter CHO-K1 GLP1R β-Arrestin Cell Line, 90 min at 37° C.; normalized to GLP-1; read-out: GLP-1R β Arrestin EC50.

In the case of `CC[C@H](C)[C@H](NC(=O)[C@H](CC(C)C)NC(=O)[C@H](Cc1c[nH]c2ccccc12)NC(=O)[C@H](CCC(N)=O)NC(=O)[C@@H](NC(=O)[C@H](Cc1ccccc1)NC(=O)[C@H](C)NC(=O)[C@H](CCCCNC(=O)COCCOCCNC(=O)COCCOCCNC(=O)CC[C@H](NC(=O)CCCCCCCCCCCCCCCCCCC(=O)O)C(=O)O)NC(=O)[C@H](CCC(N)=O)NC(=O)[C@H](C)NC(=O)[C@@H](NC(=O)[C@H](CCCCN)NC(=O)[C@H](CC(=O)O)NC(=O)[C@H](CC(C)C)NC(=O)C(C)(C)NC(=O)[C@@H](NC(=O)[C@H](CO)NC(=O)[C@H](Cc1ccc(O)cc1)NC(=O)[C@H](CC(=O)O)NC(=O)[C@H](CO)NC(=O)[C@@H](NC(=O)[C@H](Cc1ccccc1)NC(=O)[C@@H](NC(=O)CNC(=O)[C@H](CCC(=O)O)NC(=O)CCNC(=O)C(C)(C)c1cc(O)cc(F)c1)[C@@H](C)O)[C@@H](C)O)[C@@H](C)CC)[C@@H](C)CC)C(C)C)C(=O)N[C@@H](C)C(=O)NCC(=O)NCC(=O)N1CCC[C@H]1C(=O)N[C@@H](CO)C(=O)N[C@@H](CO)C(=O)NCC(=O)N[C@@H](C)C(=O)N1CCC[C@H]1C(=O)N1CCC[C@H]1C(=O)N1CCC[C@H]1C(=O)N[C@@H](CO)C(N)=O` [Compound 117] ({X38-βAla}-EGTFTSDYSI[Aib]LDKIAQK([AEEA-AEEA-γGlu-C20 diacid])AFVQWLIAGGPSSGAPPPS-NH2), the EC50 in assay [1] was 0.1 to 1 nM; in assay [2], 1 to 10 nM; in assay [3], more than 1000 nM; in assay [4], more than 1000 nM. In addition, the Emax in assay [1] worked out at 96%; in assay [2] it was 100%.
In the case of `CC[C@H](C)[C@H](NC(=O)[C@H](CC(C)C)NC(=O)[C@H](Cc1c[nH]c2ccccc12)NC(=O)[C@H](CCC(N)=O)NC(=O)[C@@H](NC(=O)[C@H](Cc1ccccc1)NC(=O)[C@H](C)NC(=O)[C@H](CCCCNC(=O)COCCOCCNC(=O)COCCOCCNC(=O)CC[C@H](NC(=O)CCCCCCCCCCCCCCCCCCC(=O)O)C(=O)O)NC(=O)[C@H](CCC(N)=O)NC(=O)[C@H](C)NC(=O)[C@@H](NC(=O)[C@H](CCCCN)NC(=O)[C@H](CC(=O)O)NC(=O)[C@H](CC(C)C)NC(=O)C(C)(C)NC(=O)[C@@H](NC(=O)[C@H](CO)NC(=O)[C@H](Cc1ccc(O)cc1)NC(=O)[C@H](CC(=O)O)NC(=O)[C@H](CO)NC(=O)[C@@H](NC(=O)[C@H](Cc1ccccc1)NC(=O)[C@@H](NC(=O)CNC(=O)[C@H](CCC(=O)O)NC(=O)CCNC(=O)C(C)(C)c1cc(F)cc(OC)c1)[C@@H](C)O)[C@@H](C)O)[C@@H](C)CC)[C@@H](C)CC)C(C)C)C(=O)N[C@@H](C)C(=O)NCC(=O)NCC(=O)N1CCC[C@H]1C(=O)N[C@@H](CO)C(=O)N[C@@H](CO)C(=O)NCC(=O)N[C@@H](C)C(=O)N1CCC[C@H]1C(=O)N1CCC[C@H]1C(=O)N1CCC[C@H]1C(=O)N[C@@H](CO)C(N)=O` [Compound 118] ({X71-βAla}-EGTFTSDYSI[Aib]LDKIAQK([AEEA-AEEA-γGlu-C20 diacid])AFVQWLIAGGPSSGAPPPS-NH2), the EC50 in assay [1] was 1 to 10 nM; in assay [2], 10 to 100 nM; in assay [3], more than 1000 nM; in assay [4] it was more than 1000 nM. Besides, the Emax in assay [1] was 103%; in assay [2], 105%.
For the compound `CC[C@H](C)[C@H](NC(=O)[C@H](CC(C)C)NC(=O)[C@H](Cc1c[nH]c2ccccc12)NC(=O)[C@H](CCC(N)=O)NC(=O)[C@@H](NC(=O)[C@H](Cc1ccccc1)NC(=O)[C@H](C)NC(=O)[C@H](CCCCNC(=O)COCCOCCNC(=O)COCCOCCNC(=O)CC[C@H](NC(=O)CCCCCCCCCCCCCCCCCCC(=O)O)C(=O)O)NC(=O)[C@H](CCC(N)=O)NC(=O)[C@H](C)NC(=O)[C@@H](NC(=O)[C@H](CCCCN)NC(=O)[C@H](CC(=O)O)NC(=O)[C@H](CC(C)C)NC(=O)C(C)(C)NC(=O)[C@@H](NC(=O)[C@H](CO)NC(=O)[C@H](Cc1ccc(O)cc1)NC(=O)[C@H](CC(=O)O)NC(=O)[C@H](CO)NC(=O)[C@@H](NC(=O)[C@H](Cc1ccccc1)NC(=O)[C@@H](NC(=O)CNC(=O)[C@H](CCC(=O)O)NC(=O)CCNC(=O)C(C)(C)c1cc(F)cc(C(F)(F)F)c1)[C@@H](C)O)[C@@H](C)O)[C@@H](C)CC)[C@@H](C)CC)C(C)C)C(=O)N[C@@H](C)C(=O)NCC(=O)NCC(=O)N1CCC[C@H]1C(=O)N[C@@H](CO)C(=O)N[C@@H](CO)C(=O)NCC(=O)N[C@@H](C)C(=O)N1CCC[C@H]1C(=O)N1CCC[C@H]1C(=O)N1CCC[C@H]1C(=O)N[C@@H](CO)C(N)=O` [Compound 119] ({X74-βAla}-EGTFTSDYSI[Aib]LDKIAQK([AEEA-AEEA-γGlu-C20 diacid])AFVQWLIAGGPSSGAPPPS-NH2), the EC50 is 1 to 10 nM in assay [1], 10 to 100 nM in assay [2], more than 1000 nM in assay [3] and more than 1000 nM in assay [4]. For the same compound, the Emax came to 102% in assay [1] and 99% in assay [2].
As to `CC[C@H](C)[C@H](NC(=O)[C@H](CC(C)C)NC(=O)[C@H](Cc1c[nH]c2ccccc12)NC(=O)[C@H](CCC(N)=O)NC(=O)[C@@H](NC(=O)[C@H](Cc1ccccc1)NC(=O)[C@H](C)NC(=O)[C@H](CCCCNC(=O)COCCOCCNC(=O)COCCOCCNC(=O)CC[C@H](NC(=O)CCCCCCCCCCCCCCCCCCC(=O)O)C(=O)O)NC(=O)[C@H](CCC(N)=O)NC(=O)[C@H](C)NC(=O)[C@@H](NC(=O)[C@H](CCCCN)NC(=O)[C@H](CC(=O)O)NC(=O)[C@H](CC(C)C)NC(=O)C(C)(C)NC(=O)[C@@H](NC(=O)[C@H](CO)NC(=O)[C@H](Cc1ccc(O)cc1)NC(=O)[C@H](CC(=O)O)NC(=O)[C@H](CO)NC(=O)[C@@H](NC(=O)[C@H](Cc1ccccc1)NC(=O)[C@@H](NC(=O)CNC(=O)[C@@H](CC(=O)O)NC(=O)CCCNC(=O)C(C)(C)c1cc(F)cc(C#N)c1)[C@@H](C)O)[C@@H](C)O)[C@@H](C)CC)[C@@H](C)CC)C(C)C)C(=O)N[C@@H](C)C(=O)NCC(=O)NCC(=O)N1CCC[C@H]1C(=O)N[C@@H](CO)C(=O)N[C@@H](CO)C(=O)NCC(=O)N[C@@H](C)C(=O)N1CCC[C@H]1C(=O)N1CCC[C@H]1C(=O)N1CCC[C@H]1C(=O)N[C@@H](CO)C(N)=O` [Compound 120] ({Isobutyryl(2-(3-CN-5-F-Ph))-GABA}-[dD]GTFTSDYSI[Aib]LDKIAQK([AEEA-AEEA-γGlu-C20 diacid])AFVQWLIAGGPSSGAPPPS-NH2), the EC50 in assay [1] was 10 to 100 nM; in assay [2], 100 to 1000 nM; in assay [3], more than 1000 nM; in assay [4], more than 1000 nM. The Emax in assay [1] turned out to be 104%; in assay [2], 40%.
As to `CC[C@H](C)[C@H](NC(=O)[C@H](CC(C)C)NC(=O)[C@H](Cc1c[nH]c2ccccc12)NC(=O)[C@H](CCC(N)=O)NC(=O)[C@@H](NC(=O)[C@H](Cc1ccccc1)NC(=O)[C@H](C)NC(=O)[C@H](CCCCNC(=O)COCCOCCNC(=O)COCCOCCNC(=O)CC[C@H](NC(=O)CCCCCCCCCCCCCCCCCCC(=O)O)C(=O)O)NC(=O)[C@H](CCC(N)=O)NC(=O)[C@H](C)NC(=O)[C@@H](NC(=O)[C@H](CCCCN)NC(=O)[C@H](CC(=O)O)NC(=O)[C@H](CC(C)C)NC(=O)C(C)(C)NC(=O)[C@@H](NC(=O)[C@H](CO)NC(=O)[C@H](Cc1ccc(O)cc1)NC(=O)[C@H](CC(=O)O)NC(=O)[C@H](CO)NC(=O)[C@@H](NC(=O)[C@H](Cc1ccccc1)NC(=O)[C@@H](NC(=O)CNC(=O)[C@@H](CC(=O)O)NC(=O)CCCNC(=O)C1(c2ccccc2)CNC(=O)C1)[C@@H](C)O)[C@@H](C)O)[C@@H](C)CC)[C@@H](C)CC)C(C)C)C(=O)N[C@@H](C)C(=O)NCC(=O)NCC(=O)N1CCC[C@H]1C(=O)N[C@@H](CO)C(=O)N[C@@H](CO)C(=O)NCC(=O)N[C@@H](C)C(=O)N1CCC[C@H]1C(=O)N1CCC[C@H]1C(=O)N1CCC[C@H]1C(=O)N[C@@H](CO)C(N)=O` (stereo partly drawn) [Compound 121] ({X27-GABA}-[dD]GTFTSDYSI[Aib]LDKIAQK([AEEA-AEEA-γGlu-C20 diacid])AFVQWLIAGGPSSGAPPPS-NH2), the EC50 in assay [1] is 10 to 100 nM; in assay [2] it was more than 1000 nM; in assay [3], less than 1000 nM; in assay [4] it was more than 1000 nM. In addition, the values for the Emax in assay [1] and in assay [2] were 72% and 76%, respectively.

As a reminder, the EC50 is the concentration that produces a half-maximal response. What is called Emax is the greatest response seen or fitted, relative to the assay's reference.
